What was measured:
M-NFS-60 cells = assay: Proliferation of CSF-1R highly activated mouse myeloid leukemia cell M-NFS-60 (CCK-8); type: cell-based; settings: 72 h, read-out: IC50 inhibition of cell proliferation, M-NFS-60
[1] = cited from earlier work
[2] = system: CSF-1-induced bone marrow-derived macrophages (BMDM); assay: CSF-1-induced murine-derived macrophage (BMDM) survival (CCK-8); type: cell-based, BALB/c mice; settings: Mus musculus, 168 h, murine-derived macrophages, 100 ng/mL CSF-1, 7 days, mean±SD, read-out: IC50 inhibition of cell survival, BMDM (CSF-1)
Experimental: BALB/c mice (female, 6 weeks old, healthy) were sacrificed. Bone marrow cells were taken from their femurs and tibia, and seeded into a 96-well culture plate at appropriate densities (90 µL per well) after erythrobiasis treatment. 100 ng/mL of CSF-1 factor was added to each well to induce macrophages (Bone marrow-derived macrophages, BMDM), and compounds at various concentrations were added and the plate was allowed for incubation for 7 days. A solvent control group (negative control) was set. After 7 day-exposure of the cells to the compounds, 10 µL of CCK-8 reagent was added to each well. The culture plate was placed in an incubator at 37° C. for 2-4 h, and then was read with a full-wavelength microplate reader setting at the wavelength of 450 nm.

[3] = system: CSF-1-induced human macrophages (PBMC-derived CD14+ monocytes); assay: Survival of CSF-1-induced human macrophages from PBMC (CCK-8); type: cell-based; settings: 168 h; human-derived macrophages, 100 ng/mL CSF-1, 7 days; mean±SD; read-out: IC50 inhibition of cell survival, PBMC (CSF-1)
Experimental: Cryopreserved human-derived peripheral blood (peripheral blood from healthy donors) mononuclear cells (PBMCs) were taken out of liquid nitrogen for recovery. After recovery, the cells were re-suspended at 50 million/mL with the running buffer and DNAase I was added at a final concentration of 100 µg/mL and the plate was allowed for incubation for 15 min at room temperature. After centrifugation at 300 g for 5 min, the supernatant was discarded. The pellet was re-suspended at 50 million cells/mL with the running buffer, and the suspension was filtered through a 70 µM filter screen into a flow tube. The cells were sorted by using CD14+ monocyte negative selection beads sorting kit from […] company. According to the manufacture’s instructions, the specific experimental procedures were as follows.
After cells were re-suspended at 50 million cells/mL, 50 µL of the cocktail was added to each one mL of samples. The samples were incubated at room temperature for 5 min. The magnetic beads were vortexed for 30 sec, and added to the samples. The samples were incubated for further 5 min. The sample volumes were made up to 2.5 mL. The samples were placed on a magnetic frame ([…], #18000) for 2.5 min. […] The plate was placed in an incubator at 37° C. for 2-4 h, and then was read with an adjustable wavelength microplate reader setting at a wavelength of 450 nm.

Which IC50 (M-NFS-60 cells) does the source give for `FC(F)(F)c1ccc(CNc2ccc(Cc3c[nH]c4ncc(Cl)cc34)cn2)cn1` [PLX3397, Pexidartinib, reference compound] here?
Its IC50 is 62.6 ± 15.8 nM.

What about the “black box warning on drug label” value ([1]; drug label) of the same molecule?
The value was “risk of severe and potentially fatal liver injury”.

And the IC50 [2]?
The IC50 was 48.9 ± 5.9 nM.

And the IC50 [3]?
Its IC50 is 237 ± 14.7 nM.

Which “adverse response in treated patients” value ([1]; some of the patients) does the source give for Bavencio: anti-PD-L1 antibody here?
The value was “infusion-related response predominantly of grade 1-3 severity”.

For Yervoy: an anti-CTLA-4 antibody, which “patients experiencing immune-related adverse events” value ([1]; treated patients) is on record?
Its value is “up to 60%”.

What about the “share of immune-related adverse events that were severe (grade 3-4)” value ([1]; treated patients) of the same molecule?
The value was 10-30%.

From patent US20230285389A1, “USE OF CSF-1R KINASE INHIBITOR” (Shanghai Runshi Medical Technology Co., Ltd, priority 2020, published 2023)
